How the values were obtained:
[1] = tested on: human gastric cancer strain SNU-1; assay type: cell-based
Outline: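 SNU-1 gastric cancer cells, 250 cells/well in RPMI-1640 with 10% FBS, glucose, HEPES and sodium pyruvate, plated onto serially diluted compound in DMSO.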

[2] = tested on: human ovarian cancer strain OV7; assay type: cell-based
Outline: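 OV7 cells, 250 per well, in DMEM/Ham's F-12 with 5% FBS, 0.5 µg/mL hydrocortisone and 10 µg/mL insulin, grown 7 days at 37°C with serially diluted compound. Viability by CellTiter-Glo luminescence.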

[3] = tested on: human lung cancer strain NCI-H441; assay type: cell-based
Outline: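 Readout: […] after the ATP-based reagent. Compound: serial dilutions in dimethyl sulfoxide.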

[4] = tested on: human pancreatic cancer strain KP4; assay type: cell-based
Outline: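 KP4 pancreatic cancer cells seeded at 500 cells/well in DMEM/Ham's F-12 with 10% FBS onto serially diluted compound. Viability read by CellTiter-Glo luminescence.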

[5] = tested on: human colorectal cancer strain GP2d; assay type: cell-based
Outline: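 Cells seeded at 500 cells/well in DMEM with 10% FBS onto serially diluted compound in DMSO, then cultured 7 days at 37°C, 5% CO2. Viability read by CellTiter-Glo luminescence.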

[6] = molecular target: GDP-bound KRAS wild-type protein (Homo sapiens, UniProt P01116); test: Binding to KRAS by surface plasmon resonance (SPR), dissociation constant KD; conditions: Single Cycle Kinetics
Sequence of GDP-bound KRAS wild-type protein (P01116 1-188 isoform P01116-2): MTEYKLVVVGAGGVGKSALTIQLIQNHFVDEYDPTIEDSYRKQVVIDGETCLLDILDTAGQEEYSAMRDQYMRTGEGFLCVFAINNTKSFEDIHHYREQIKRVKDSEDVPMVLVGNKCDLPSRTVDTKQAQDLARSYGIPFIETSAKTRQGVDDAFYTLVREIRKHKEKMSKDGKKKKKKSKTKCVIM
Outline: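 Captured GDP-RAS (~100–300 RU) was exposed to increasing compound concentrations, 75 s per step, in running buffer with 10 µM GDP, 10 mM MgCl2 and 4% DMSO at pH 7.4.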

[7] = tested on: human bladder cancer strain UM-UC-3; assay type: cell-based
Outline: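 UM-UC-3 human bladder cancer cells were seeded at 250 cells/well onto serially diluted compound in MEM with 10% FBS. Viability was read as CellTiter-Glo luminescence.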

HRAS wild-type protein = HRAS wild-type protein (Homo sapiens, UniProt P01112); test: Binding to HRAS by surface plasmon resonance (SPR), KD and KD ratio to KRAS; conditions: ratio of KD for HRAS wild-type protein to KD for KRAS
Sequence of HRAS wild-type protein (P01112 whole entry): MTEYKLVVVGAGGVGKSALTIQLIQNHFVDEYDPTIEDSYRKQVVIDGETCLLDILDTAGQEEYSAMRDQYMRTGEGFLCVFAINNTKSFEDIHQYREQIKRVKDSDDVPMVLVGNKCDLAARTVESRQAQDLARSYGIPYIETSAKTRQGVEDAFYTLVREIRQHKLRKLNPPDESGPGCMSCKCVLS
Outline: (§1)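 Affinity is measured by surface plasmon resonance at 30°C against captured, GDP-loaded RAS carrying a biotinylated Avi tag. Compounds are titrated by single-cycle kinetics, and KD comes from a 1:1 fit.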

[8] = molecular target: GDP-bound NRAS wild-type protein (Homo sapiens, UniProt P01111); test: Binding to NRAS by surface plasmon resonance (SPR), KD and KD ratio to KRAS; conditions: ratio of KD for GDP-bound NRAS wild-type protein to KD for KRAS
Sequence of GDP-bound NRAS wild-type protein (P01111 whole entry): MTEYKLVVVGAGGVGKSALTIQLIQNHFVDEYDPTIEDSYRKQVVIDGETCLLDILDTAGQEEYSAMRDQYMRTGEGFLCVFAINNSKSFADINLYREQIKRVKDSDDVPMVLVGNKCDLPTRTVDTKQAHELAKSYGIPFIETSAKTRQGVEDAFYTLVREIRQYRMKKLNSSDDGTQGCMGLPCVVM
Outline: as §1

[9] = tested on: human gastric cancer strain GSU; assay type: cell-based
Outline: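 Cells seeded at 200 per well in RPMI-1640 with 10% FBS onto serially diluted compound (DMSO) in U-bottom plates. Viability read by CellTiter-Glo luminescence.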

| Compound | IC50 [1] | IC50 [2] | IC50 [3] | IC50 [4] | IC50 [5] | Kd [6] | IC50 [7] | HRAS /KRAS (HRAS wild-type protein) | NRAS /KRAS [8] | IC50 [9] |
| --- | --- | --- | --- | --- | --- | --- | --- | --- | --- | --- |
| CCO[C@@H]1C[C@H]2C(=O)NC3(CCCC3)C(=O)N(C)[C@@H](C3CCCC3)C(=O)N(C)[C@H](C(=O)N(C)C)CC(=O)N(C)[C@@H]([C@@H](C)OC)C(=O)N[C@@H]([C@@H](C)CC)C(=O)N(C)CC(=O)N(C)[C@H]3C/C=C\CCN(C3=O)[C@@H](Cc3ccc(C(F)(F)F)cc3)C(=O)N(C)CC(=O)N[C@@H](CCc3cc(F)c(C(F)(F)F)c(F)c3)C(=O)N2C1 [PP3475, (2S,8S,12R,14S,20S,23S,27S,30S,36S,38Z)-20-cyclopentyl-8-[2-[3,5-difluoro-4-(trifluoromethyl)phenyl]ethyl]-12-ethoxy-27-[(1R)-1-methoxyethyl]-N,N,4,19,22,26,32,35-octamethyl-30-[(1S)-1-methylpropyl]-3,6,9,15,18,21,25,28,31,34,42-undecaoxo-2-[[4-(trifluoromethyl)phenyl]methyl]spiro[1,4,7,10,16,19,22,26,29,32,35-undecazatricyclo[34.5.1.0^10,14]dotetracont-38-ene-17,1'-cyclopentane]-23-carboxamide] | 2.5 nM | 13.2 nM | 7.2 nM | 13.1 nM | 3.5 nM | 0.076 nM | 3.9 nM | A (a compound having 10 or more and less than 20 is denoted as A) | A (a compound having 10 or more and less than 20 is denoted as A) | 0.8 nM |
| CCO[C@@H]1C[C@H]2C(=O)NC3(CCCC3)C(=O)N(C)[C@@H](C3CCCC3)C(=O)N(C)[C@H](C(=O)N(C)C)CC(=O)N(C)[C@@H](CC(C)C)C(=O)N[C@@H]([C@@H](C)CC)C(=O)N(C)CC(=O)N(C)[C@H]3C/C=C\CCN(C3=O)[C@@H](Cc3ccc(C)cc3)C(=O)N(C)CC(=O)N[C@@H](CCc3cc(F)c(C(F)(F)F)c(F)c3)C(=O)N2C1 [PP3478, (2S,8S,12R,14S,20S,23S,27S,30S,36S,38Z)-20-cyclopentyl-8-[2-[3,5-difluoro-4-(trifluoromethyl)phenyl]ethyl]-12-ethoxy-27-isobutyl-N,N,4,19,22,26,32,35-octamethyl-30-[(1S)-1-methylpropyl]-3,6,9,15,18,21,25,28,31,34,42-undecaoxo-2-(p-tolylmethyl)spiro[1,4,7,10,16,19,22,26,29,32,35-undecazatricyclo[34.5.1.0^10,14]dotetracont-38-ene-17,1'-cyclopentane]-23-carboxamide] | 4 nM | 14.4 nM | 5.8 nM | 15.1 nM | 5.1 nM | 0.11 nM | 2.9 nM | A (a compound having 10 or more and less than 20 is denoted as A) | A (a compound having 10 or more and less than 20 is denoted as A) | 0.9 nM |
| CCO[C@@H]1C[C@H]2C(=O)NC3(CCCC3)C(=O)N(C)[C@@H](C3CCCC3)C(=O)N(C)[C@H](C(=O)N(C)C)CC(=O)N(C)[C@@H]([C@@H](C)OC)C(=O)N[C@@H]([C@@H](C)CC)C(=O)N(C)CC(=O)N(C)[C@H]3C/C=C\CCN(C3=O)[C@@H](Cc3ccc(C)cc3)C(=O)N(C)CC(=O)N[C@@H](CCc3cc(F)c(C(F)(F)F)c(F)c3)C(=O)N2C1 [PP3481, (2S,8S,12R,14S,20S,23S,27S,30S,36S,38Z)-20-cyclopentyl-8-[2-[3,5-difluoro-4-(trifluoromethyl)phenyl]ethyl]-12-ethoxy-27-[(1R)-1-methoxyethyl]-N,N,4,19,22,26,32,35-octamethyl-30-[(1S)-1-methylpropyl]-3,6,9,15,18,21,25,28,31,34,42-undecaoxo-2-(p-tolylmethyl)spiro[1,4,7,10,16,19,22,26,29,32,35-undecazatricyclo[34.5.1.0^10,14]dotetracont-38-ene-17,1'-cyclopentane]-23-carboxamide] | 8.2 nM | 24.8 nM | 13.6 nM | 25.5 nM | 9.1 nM | 0.12 nM | 8.7 nM | A (a compound having 10 or more and less than 20 is denoted as A) | A (a compound having 10 or more and less than 20 is denoted as A) | 2.1 nM |

— patent EP4603105A1, “PHARMACEUTICAL COMPOSITION CONTAINING CYCLIC COMPOUND HAVING SELECTIVE KRAS INHIBITORY EFFECT AGAINST HRAS AND NRAS” (CHUGAI SEIYAKU KABUSHIKI KAISHA, priority 2022, dated 2024)
